Results as given in ChEMBL document CHEMBL5260856, “Design, synthesis and biological evaluation of pyrazolo[3,4-b]pyridine derivatives as TRK inhibitors” (RSC Med Chem, 2023).

Experiments:
[1] = molecular target: Serine/threonine-protein kinase PAK 4 (Homo sapiens, UniProt O96013); assay: Inhibition of PAK4 (unknown origin)
Focal adhesion kinase 1 = Focal adhesion kinase 1 (Homo sapiens, UniProt Q05397); assay: Inhibition of FAK (unknown origin)
[2] = molecular target: T1, Serine/threonine-protein kinase PLK4 (Homo sapiens, UniProt O00444); assay: Inhibition of PLK4 (unknown origin)
T1 sequence (O00444 whole entry): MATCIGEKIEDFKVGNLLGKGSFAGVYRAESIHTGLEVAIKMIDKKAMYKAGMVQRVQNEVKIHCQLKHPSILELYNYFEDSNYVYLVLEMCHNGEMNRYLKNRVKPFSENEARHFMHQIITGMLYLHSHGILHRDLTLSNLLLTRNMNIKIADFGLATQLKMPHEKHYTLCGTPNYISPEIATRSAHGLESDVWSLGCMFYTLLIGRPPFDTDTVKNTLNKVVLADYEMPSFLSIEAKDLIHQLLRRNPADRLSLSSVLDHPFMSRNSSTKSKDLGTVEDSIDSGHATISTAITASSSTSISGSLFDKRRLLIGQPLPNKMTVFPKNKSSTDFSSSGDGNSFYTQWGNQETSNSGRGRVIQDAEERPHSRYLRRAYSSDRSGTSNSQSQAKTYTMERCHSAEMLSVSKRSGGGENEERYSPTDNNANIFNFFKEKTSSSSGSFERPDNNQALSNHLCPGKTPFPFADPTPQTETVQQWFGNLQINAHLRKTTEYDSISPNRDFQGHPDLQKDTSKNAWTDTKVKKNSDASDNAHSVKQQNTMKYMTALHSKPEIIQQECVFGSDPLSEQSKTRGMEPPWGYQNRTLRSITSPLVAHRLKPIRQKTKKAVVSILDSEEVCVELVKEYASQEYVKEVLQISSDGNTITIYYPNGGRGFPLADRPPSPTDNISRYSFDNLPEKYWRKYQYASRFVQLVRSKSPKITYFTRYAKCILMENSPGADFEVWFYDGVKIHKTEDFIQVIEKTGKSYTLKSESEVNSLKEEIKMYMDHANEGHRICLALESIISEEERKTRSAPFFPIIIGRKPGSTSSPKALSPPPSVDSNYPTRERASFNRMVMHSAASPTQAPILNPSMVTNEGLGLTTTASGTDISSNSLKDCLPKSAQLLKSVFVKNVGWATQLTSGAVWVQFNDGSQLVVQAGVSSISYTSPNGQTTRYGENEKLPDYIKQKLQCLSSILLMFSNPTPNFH

[3] = molecular target: High affinity nerve growth factor receptor (Homo sapiens, UniProt P04629); assay: Inhibition of TRKA (unknown origin) using TK as substrate in presence of ATP incubated for 30 mins by HTRF KinEASE assay
KM12 = assay: Antiproliferative activity against human KM12 cells assessed as cell growth inhibition incubated for 72 hrs by CCK-8 assay; type: functional, cell-based; settings: KM12, 72 h
[4] = Inhibition of tyrosine kinase (unknown origin); parameters: species or system Homo sapiens
MCF7 = assay: Antiproliferative activity against human MCF7 cells assessed as cell growth inhibition incubated for 72 hrs by CCK-8 assay; type: functional, cell-based; settings: MCF7, 72 h
[5] = Stability in human plasma assessed as parent compound remaining at 100 uM and measured after 0 mins by LC-MS/MS analysis; type: ADME, cell-free; settings: read-out: Stability
[6] = Stability in human plasma assessed as half life at 100 uM and measured after 120 mins by LC-MS/MS analysis; type: ADME, cell-free
CYP1A2 = molecular target: T2, CYP1A2 (Homo sapiens, UniProt P05177); assay: Inhibition of CYP1A2 in human liver microsomes using phenacetin as substrate at 10 uM preincubated for 10 mins followed by NADPH addition and measured after 15 mins by LC-MS/MS analysis; type: ADME, Microsome; settings: probe phenacetin, time 25 min
T2 sequence (P05177 whole entry): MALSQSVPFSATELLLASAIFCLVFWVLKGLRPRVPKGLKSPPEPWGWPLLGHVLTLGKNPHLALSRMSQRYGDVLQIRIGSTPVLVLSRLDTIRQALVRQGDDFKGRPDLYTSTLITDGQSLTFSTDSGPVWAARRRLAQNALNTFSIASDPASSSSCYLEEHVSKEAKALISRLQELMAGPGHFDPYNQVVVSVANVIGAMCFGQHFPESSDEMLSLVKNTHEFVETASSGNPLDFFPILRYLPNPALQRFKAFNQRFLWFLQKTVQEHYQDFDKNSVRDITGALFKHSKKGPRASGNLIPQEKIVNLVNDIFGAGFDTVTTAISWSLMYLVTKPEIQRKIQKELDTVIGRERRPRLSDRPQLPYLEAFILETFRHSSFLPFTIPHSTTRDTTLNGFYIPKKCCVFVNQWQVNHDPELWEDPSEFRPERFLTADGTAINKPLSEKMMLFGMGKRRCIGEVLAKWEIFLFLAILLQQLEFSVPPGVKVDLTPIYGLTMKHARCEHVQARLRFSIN

CYP2C9 = CYP2C9 (Homo sapiens, UniProt P11712); assay: Inhibition of CYP2C9 in human liver microsomes using diclofenac as substrate at 10 uM preincubated for 10 mins followed by NADPH addition and measured after 15 mins by LC-MS/MS analysis; type: ADME, Microsome; settings: probe diclofenac, time 25 min
[7] = Stability in human plasma assessed as parent compound remaining at 100 uM and measured after 60 mins by LC-MS/MS analysis; type: ADME, cell-free; settings: read-out: Stability
CYP2C19 = CYP2C19 (Homo sapiens, UniProt P33261); assay: Inhibition of CYP2C19 in human liver microsomes using S-mephenytoin as substrate at 10 uM preincubated for 10 mins followed by NADPH addition and measured after 15 mins by LC-MS/MS analysis; type: ADME, Microsome; settings: probe S-mephenytoin, time 25 min
[8] = Stability in human plasma assessed as parent compound remaining at 100 uM and measured after 120 mins by LC-MS/MS analysis; type: ADME, cell-free; settings: read-out: Stability
[9] = Stability in human plasma assessed as parent compound remaining at 100 uM and measured after 10 mins by LC-MS/MS analysis; type: ADME, cell-free; settings: read-out: Stability
CYP3A4 = CYP3A4 (Homo sapiens, UniProt P08684); assay: Inhibition of CYP3A4 in human liver microsomes using midazolam as substrate at 10 uM preincubated for 10 mins followed by NADPH addition and measured after 15 mins by LC-MS/MS analysis; type: ADME, Microsome; settings: probe midazolam, time 25 min
[10] = Stability in human plasma assessed as parent compound remaining at 100 uM and measured after 30 mins by LC-MS/MS analysis; type: ADME, cell-free; settings: read-out: Stability
CYP2D6 = CYP2D6 (Homo sapiens, UniProt P10635); assay: Inhibition of CYP2D6 in human liver microsomes using dextromethorphan as substrate at 10 uM preincubated for 10 mins followed by NADPH addition and measured after 15 mins by LC-MS/MS analysis; type: ADME, Microsome; settings: probe dextromethorphan, time 25 min
CYP2D6, sequence (P10635 whole entry): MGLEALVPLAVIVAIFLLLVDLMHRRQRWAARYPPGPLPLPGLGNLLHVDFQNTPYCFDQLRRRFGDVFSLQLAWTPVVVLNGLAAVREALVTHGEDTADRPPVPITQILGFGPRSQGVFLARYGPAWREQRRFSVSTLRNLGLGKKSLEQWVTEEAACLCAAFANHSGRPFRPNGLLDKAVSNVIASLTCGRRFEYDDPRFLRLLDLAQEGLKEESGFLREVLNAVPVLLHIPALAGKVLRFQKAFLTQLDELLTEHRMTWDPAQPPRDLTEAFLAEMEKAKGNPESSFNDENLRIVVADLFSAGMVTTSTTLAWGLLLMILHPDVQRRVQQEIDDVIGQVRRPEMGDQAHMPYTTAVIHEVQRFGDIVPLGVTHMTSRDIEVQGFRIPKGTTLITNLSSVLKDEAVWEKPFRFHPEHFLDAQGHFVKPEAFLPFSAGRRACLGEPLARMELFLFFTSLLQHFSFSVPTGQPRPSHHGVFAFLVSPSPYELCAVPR

Serine/threonine-protein kinase PAK 4, sequence (O96013 whole entry): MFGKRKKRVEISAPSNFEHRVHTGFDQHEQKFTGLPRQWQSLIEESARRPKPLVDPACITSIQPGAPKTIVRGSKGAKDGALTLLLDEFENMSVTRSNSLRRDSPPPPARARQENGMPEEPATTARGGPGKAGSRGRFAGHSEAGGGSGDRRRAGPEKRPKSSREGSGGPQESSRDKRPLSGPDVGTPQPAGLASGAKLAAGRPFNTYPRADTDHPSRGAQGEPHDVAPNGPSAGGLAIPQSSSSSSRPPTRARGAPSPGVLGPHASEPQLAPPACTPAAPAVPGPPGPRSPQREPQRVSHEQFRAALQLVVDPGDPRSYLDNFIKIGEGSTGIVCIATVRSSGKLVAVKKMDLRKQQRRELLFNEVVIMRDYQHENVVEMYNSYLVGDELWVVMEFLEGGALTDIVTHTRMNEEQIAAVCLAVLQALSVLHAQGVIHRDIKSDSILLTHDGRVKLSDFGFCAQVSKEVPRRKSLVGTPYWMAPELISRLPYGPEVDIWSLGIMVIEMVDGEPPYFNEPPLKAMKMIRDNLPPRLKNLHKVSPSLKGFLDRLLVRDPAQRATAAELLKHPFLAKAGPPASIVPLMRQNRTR
High affinity nerve growth factor receptor, sequence (P04629 whole entry): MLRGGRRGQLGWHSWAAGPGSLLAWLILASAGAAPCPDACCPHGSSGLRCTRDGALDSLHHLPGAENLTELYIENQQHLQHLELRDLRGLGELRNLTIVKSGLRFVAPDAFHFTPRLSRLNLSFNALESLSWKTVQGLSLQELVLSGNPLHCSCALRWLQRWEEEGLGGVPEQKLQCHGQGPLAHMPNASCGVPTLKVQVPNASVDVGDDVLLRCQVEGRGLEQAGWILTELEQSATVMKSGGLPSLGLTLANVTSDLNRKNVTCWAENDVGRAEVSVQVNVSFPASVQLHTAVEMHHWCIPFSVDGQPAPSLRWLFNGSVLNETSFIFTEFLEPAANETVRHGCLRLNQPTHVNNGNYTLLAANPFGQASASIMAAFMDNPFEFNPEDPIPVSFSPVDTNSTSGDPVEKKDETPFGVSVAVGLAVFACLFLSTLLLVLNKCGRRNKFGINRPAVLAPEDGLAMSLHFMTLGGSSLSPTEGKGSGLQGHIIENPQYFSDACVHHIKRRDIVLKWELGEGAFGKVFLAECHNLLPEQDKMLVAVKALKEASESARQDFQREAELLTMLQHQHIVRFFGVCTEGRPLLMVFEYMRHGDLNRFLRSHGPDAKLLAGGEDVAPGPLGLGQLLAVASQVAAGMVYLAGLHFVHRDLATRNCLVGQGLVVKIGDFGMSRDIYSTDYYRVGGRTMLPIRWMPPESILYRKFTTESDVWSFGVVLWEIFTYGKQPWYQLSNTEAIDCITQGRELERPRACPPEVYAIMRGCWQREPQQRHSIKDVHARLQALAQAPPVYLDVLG
Focal adhesion kinase 1, sequence (Q05397 whole entry): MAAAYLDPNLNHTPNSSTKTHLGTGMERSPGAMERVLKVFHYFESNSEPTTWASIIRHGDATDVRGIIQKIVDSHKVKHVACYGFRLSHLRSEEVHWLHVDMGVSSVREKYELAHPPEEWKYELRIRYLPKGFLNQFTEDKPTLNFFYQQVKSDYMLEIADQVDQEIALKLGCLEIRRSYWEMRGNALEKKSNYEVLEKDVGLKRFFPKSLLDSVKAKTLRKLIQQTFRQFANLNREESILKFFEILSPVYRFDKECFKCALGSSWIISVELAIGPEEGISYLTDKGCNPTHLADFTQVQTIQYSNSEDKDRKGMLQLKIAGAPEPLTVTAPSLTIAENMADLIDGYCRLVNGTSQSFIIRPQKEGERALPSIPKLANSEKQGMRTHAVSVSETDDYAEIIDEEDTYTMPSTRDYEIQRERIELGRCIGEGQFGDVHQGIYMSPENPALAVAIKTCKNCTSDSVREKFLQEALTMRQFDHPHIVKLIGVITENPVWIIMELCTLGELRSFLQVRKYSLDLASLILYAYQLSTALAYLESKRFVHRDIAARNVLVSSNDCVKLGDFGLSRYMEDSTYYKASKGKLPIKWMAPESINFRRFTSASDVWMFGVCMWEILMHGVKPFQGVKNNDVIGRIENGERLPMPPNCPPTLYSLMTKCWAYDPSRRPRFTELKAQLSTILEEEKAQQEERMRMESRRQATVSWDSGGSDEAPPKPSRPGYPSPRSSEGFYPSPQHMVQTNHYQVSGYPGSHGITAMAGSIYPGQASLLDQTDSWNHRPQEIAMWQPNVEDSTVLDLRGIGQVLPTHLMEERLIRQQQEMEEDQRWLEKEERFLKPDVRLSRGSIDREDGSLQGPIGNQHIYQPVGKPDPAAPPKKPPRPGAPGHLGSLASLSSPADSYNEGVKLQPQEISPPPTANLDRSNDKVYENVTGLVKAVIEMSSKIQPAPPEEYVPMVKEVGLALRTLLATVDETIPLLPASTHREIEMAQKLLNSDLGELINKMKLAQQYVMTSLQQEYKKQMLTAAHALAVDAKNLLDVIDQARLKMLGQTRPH
CYP2C9, sequence (P11712 whole entry): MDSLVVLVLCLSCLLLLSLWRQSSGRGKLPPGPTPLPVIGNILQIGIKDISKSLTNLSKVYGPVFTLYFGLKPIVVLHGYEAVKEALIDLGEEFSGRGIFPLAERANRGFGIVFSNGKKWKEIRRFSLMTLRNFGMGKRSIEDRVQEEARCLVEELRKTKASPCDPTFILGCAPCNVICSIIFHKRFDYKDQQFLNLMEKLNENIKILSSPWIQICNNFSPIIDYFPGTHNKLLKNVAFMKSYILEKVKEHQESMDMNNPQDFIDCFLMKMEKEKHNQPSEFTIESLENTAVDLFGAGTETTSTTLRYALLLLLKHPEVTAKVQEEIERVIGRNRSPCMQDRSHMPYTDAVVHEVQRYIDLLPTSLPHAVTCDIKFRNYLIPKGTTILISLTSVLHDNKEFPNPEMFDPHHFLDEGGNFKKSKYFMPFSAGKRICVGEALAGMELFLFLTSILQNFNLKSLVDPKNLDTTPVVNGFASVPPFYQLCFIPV
CYP2C19, sequence (P33261 whole entry): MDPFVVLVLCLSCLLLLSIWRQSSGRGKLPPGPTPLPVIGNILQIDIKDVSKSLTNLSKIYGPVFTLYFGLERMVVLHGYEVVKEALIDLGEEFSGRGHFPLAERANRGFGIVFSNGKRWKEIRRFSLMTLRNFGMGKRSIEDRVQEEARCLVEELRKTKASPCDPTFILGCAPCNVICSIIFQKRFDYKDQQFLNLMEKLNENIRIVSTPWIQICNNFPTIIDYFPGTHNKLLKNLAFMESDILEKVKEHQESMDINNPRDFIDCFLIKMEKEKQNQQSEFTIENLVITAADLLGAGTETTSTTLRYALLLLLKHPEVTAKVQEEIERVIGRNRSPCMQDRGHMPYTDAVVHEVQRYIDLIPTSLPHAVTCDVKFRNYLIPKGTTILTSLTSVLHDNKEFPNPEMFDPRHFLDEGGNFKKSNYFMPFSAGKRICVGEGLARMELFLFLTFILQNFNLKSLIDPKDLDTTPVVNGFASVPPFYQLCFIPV
CYP3A4, sequence (P08684 whole entry): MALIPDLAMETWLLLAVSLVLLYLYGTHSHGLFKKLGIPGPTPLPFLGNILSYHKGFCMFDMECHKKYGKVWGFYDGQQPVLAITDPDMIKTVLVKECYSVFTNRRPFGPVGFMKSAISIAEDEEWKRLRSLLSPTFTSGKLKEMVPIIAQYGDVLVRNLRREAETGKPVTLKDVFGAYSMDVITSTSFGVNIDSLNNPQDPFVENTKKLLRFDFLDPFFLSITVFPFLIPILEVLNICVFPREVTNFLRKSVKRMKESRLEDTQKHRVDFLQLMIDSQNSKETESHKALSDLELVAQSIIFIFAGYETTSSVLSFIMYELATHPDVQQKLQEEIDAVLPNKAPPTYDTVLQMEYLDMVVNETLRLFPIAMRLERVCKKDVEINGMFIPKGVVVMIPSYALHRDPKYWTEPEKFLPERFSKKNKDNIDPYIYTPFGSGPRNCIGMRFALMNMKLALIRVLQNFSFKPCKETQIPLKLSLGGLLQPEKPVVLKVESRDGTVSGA

O=C(c1cccc(-c2n[nH]c3ncc(Cc4cc(F)ccc4F)cc23)c1)N1CCC[C@H](O)C1
IC50 [1]: > 100000 nM
IC50 (Focal adhesion kinase 1): > 100000 nM
IC50 [2]: 1320 nM

O=C(c1cccc(Nc2n[nH]c3ncc(Cc4cc(F)cc(F)c4)cc23)c1)N1CCOCC1
IC50 [3]: 700 nM

O=C(c1ccc(Nc2n[nH]c3ncc(Cc4cc(F)ccc4F)cc23)cc1)N1CCOCC1
IC50 [3]: 980 nM

O=C(c1cccc(Nc2n[nH]c3ncc(Cc4cc(F)ccc4F)cc23)c1)N1CCCC(O)C1 (configuration not stated)
IC50 [3]: 205 nM

O=C(Nc1cnn2ccc(N3CCC[C@@H]3c3cc(F)ccc3F)nc12)N1CC[C@H](O)C1 [LAROTRECTINIB]
IC50 (KM12): 12 nM
IC50 [4]: < 20 nM
IC50 (MCF7): > 40000 nM

O=C(c1cccc(Nc2n[nH]c3ncc(Cc4ccc(F)c(F)c4)cc23)c1)N1CCOCC1
IC50 [3]: > 100000 nM

O=C(c1cccc(Nc2n[nH]c3ncc(Cc4c(F)cccc4F)cc23)c1)N1CCOCC1
IC50 [3]: 838 nM

O=C(c1cccc(-c2n[nH]c3ncc(Cc4cc(F)ccc4F)cc23)c1)N1CCC[C@@H](O)C1
IC50 [1]: > 100000 nM
IC50 (Focal adhesion kinase 1): > 100000 nM
IC50 [2]: 690 nM

O=C(c1cccc(Nc2n[nH]c3ncc(Cc4cccc(F)c4F)cc23)c1)N1CCOCC1
IC50 [3]: 1970 nM

O=C(c1cccc(Nc2n[nH]c3ncc(Cc4ccc(F)cc4)cc23)c1)N1CCOCC1
IC50 [3]: 2780 nM

NC1CCN(C(=O)c2cccc(Nc3n[nH]c4ncc(Cc5cc(F)ccc5F)cc34)c2)CC1
IC50 [3]: 437 nM

O=C(c1cccc(Nc2n[nH]c3ncc(Cc4cc(F)c(F)c(F)c4)cc23)c1)N1CCOCC1
IC50 [3]: 660 nM

O=C(c1ccc(Nc2n[nH]c3ncc(Cc4cc(F)ccc4F)cc23)cc1)N1CCCC(O)C1 (configuration not stated)
IC50 [3]: 156 nM

CN1CCN(C(=O)c2ccc(Nc3n[nH]c4ncc(Cc5cc(F)ccc5F)cc34)cc2)CC1
IC50 [3]: 389 nM

O=C(c1cccc(-c2n[nH]c3ncc(Cc4cc(F)ccc4F)cc23)c1)N1CCC(O)CC1
IC50 [3]: 254 nM

O=C(c1cccc(Nc2n[nH]c3ncc(Cc4cccc(C(F)(F)F)c4)cc23)c1)N1CCOCC1
IC50 [3]: 16700 nM

O=C(c1cccc(-c2n[nH]c3ncc(Cc4cc(F)ccc4F)cc23)c1)N1CCCC(O)C1 (configuration not stated)
remaining at 0 h, 100 µM [5]: 100%
IC50 [1]: > 100000 nM
IC50 (Focal adhesion kinase 1): > 100000 nM
IC50 [2]: 1650 nM
half-life at 100 µM [6]: > 4.82 h
inhibition at 0.25 h, 10 µM (CYP1A2): 16.6%
inhibition at 0.25 h, 10 µM (CYP2C9): 66.6%
remaining at 1 h, 100 µM [7]: 93.6%
inhibition at 0.25 h, 10 µM (CYP2C19): 48.6%
remaining at 2 h, 100 µM [8]: 89.1%
remaining at 10 min, 100 µM [9]: 104%
inhibition at 0.25 h, 10 µM (CYP3A4): 0%
remaining at 0.5 h, 100 µM [10]: 88%
inhibition at 0.25 h, 10 µM (CYP2D6): 25.8%

O=C(c1ccc(Nc2n[nH]c3ncc(Cc4cc(F)ccc4F)cc23)cc1)N1CCNCC1
IC50 [3]: 409 nM
